Assay results taken from PubChem BioAssay (NCI).
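GI50 = concentration required for 50% inhibition of growth. TGI: concentration producing complete growth inhibition.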

Legend:
Experiment in all cases: NCI anticancer screen, dose series, 384-well format
OVCAR-8 ovarian = tested on: OVCAR-8 ovarian
DU-145 prostate = tested on: DU-145 prostate
KM12 colon = tested on: KM12 colon
CCRF-CEM leukemia = tested on: CCRF-CEM leukemia
RXF 393 renal = tested on: RXF 393 renal
NCI-H226 lung = tested on: NCI-H226 lung
MDA-MB-468 breast = tested on: MDA-MB-468 breast
SNB-19 CNS = tested on: SNB-19 CNS
EKVX NSCLC = tested on: EKVX NSCLC
HL-60(TB) leukemia = tested on: HL-60(TB) leukemia
MOLT-4 leukemia = tested on: MOLT-4 leukemia
CAKI-1 renal = tested on: CAKI-1 renal
NCI-H460 NSCLC = tested on: NCI-H460 NSCLC

CNC(=O)c1cc(Oc2ccc(NC(=O)Nc3ccc(Cl)c(C(F)(F)F)c3)cc2)ccn1
GI50 (OVCAR-8 ovarian): 2090 nM | TGI (OVCAR-8 ovarian): 4240 nM | GI50 (DU-145 prostate): 2690 nM | TGI (DU-145 prostate): 6570 nM | GI50 (KM12 colon): 413 nM | TGI (KM12 colon): 2320 nM | GI50 (CCRF-CEM leukemia): 1590 nM | TGI (CCRF-CEM leukemia): 2950 nM | GI50 (RXF 393 renal): 2200 nM | TGI (RXF 393 renal): 4430 nM | GI50 (NCI-H226 lung): 1460 nM | TGI (NCI-H226 lung): 3280 nM | GI50 (MDA-MB-468 breast): 1500 nM | TGI (MDA-MB-468 breast): 3350 nM | GI50 (SNB-19 CNS): 3330 nM | TGI (SNB-19 CNS): 8100 nM | GI50 (EKVX NSCLC): 2900 nM | TGI (EKVX NSCLC): 6800 nM | GI50 (HL-60(TB) leukemia): 892 nM | TGI (HL-60(TB) leukemia): 2040 nM | GI50 (MOLT-4 leukemia): 1660 nM | TGI (MOLT-4 leukemia): 3060 nM | GI50 (CAKI-1 renal): 2190 nM | TGI (CAKI-1 renal): 4740 nM | GI50 (NCI-H460 NSCLC): 2100 nM | TGI (NCI-H460 NSCLC): 4250 nM
